What was measured:
Test in all cases: relative viability (nuclei count vs DMSO), 5 days (fraction); higher = more cells survive
[1] = test system: NCI-H2085
Procedure, shortened: (§1)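 Values are medians from duplicate plates. Each reflects relative viability, defined as the nuclei count of treated wells over that of vehicle wells. Lung cancer cell lines in 1536-well plates were pin-tool dosed one day after seeding with one drug alone or with a fixed anchor-drug dose plus five library-drug doses (not always all listed) in √10 steps, then fixed, stained and imaged at 4× after 5 days.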

[2] = test system: NCI-H2126
Procedure, shortened: as §1

[3] = test system: NCI-H1993
Procedure, shortened: as §1

[4] = test system: NCI-H2023
Procedure, shortened: as §1

[5] = test system: PC-14
Procedure, shortened: as §1

[6] = test system: NCI-H1650
Procedure, shortened: as §1

[7] = test system: NCI-H358
Procedure, shortened: as §1

[8] = test system: BEN
Procedure, shortened: as §1

[9] = test system: H3255
Procedure, shortened: as §1

[10] = test system: NCI-H2347
Procedure, shortened: as §1

[11] = test system: LXF-289
Procedure, shortened: as §1

[12] = test system: NCI-H647
Procedure, shortened: as §1

[13] = test system: NCI-H2009
Procedure, shortened: as §1

[14] = test system: NCI-H1563
Procedure, shortened: as §1

[15] = test system: NCI-H322M
Procedure, shortened: as §1

[16] = test system: EMC-BAC-2
Procedure, shortened: as §1

[17] = test system: LCLC-97TM1
Procedure, shortened: as §1

[18] = test system: NCI-H1915
Procedure, shortened: as §1

[19] = test system: HOP-62
Procedure, shortened: as §1

[20] = test system: SW 1573
Procedure, shortened: as §1

[21] = test system: NCI-H727
Procedure, shortened: as §1

[22] = test system: SK-LU-1
Procedure, shortened: as §1

[23] = test system: NCI-H661
Procedure, shortened: as §1

CC(C)Oc1cc(Nc2nc(N[C@@H](C)c3ccc(F)cn3)ncc2Cl)n[nH]1 [AZ23] + CS(=O)(=O)CCNCc1ccc(-c2ccc3ncnc(Nc4ccc(OCc5cccc(F)c5)c(Cl)c4)c3c2)o1 [Lapatinib] (partner 2 µM)
relative viability ([1]; first compound 0.01 µM): 0.771
relative viability ([1]; first compound 0.03162 µM): 0.735
relative viability ([1]; first compound 0.3162 µM): 0.772
relative viability ([2]; first compound 0.01 µM): 0.838
relative viability ([2]; first compound 0.03162 µM): 0.821
relative viability ([2]; first compound 0.3162 µM): 0.842
relative viability ([3]; first compound 0.01 µM): 0.808
relative viability ([3]; first compound 0.3162 µM): 0.946
relative viability ([4]; first compound 0.03162 µM): 0.945
relative viability ([4]; first compound 0.3162 µM): 0.929
relative viability ([5]; first compound 0.01 µM): 0.351
relative viability ([5]; first compound 0.03162 µM): 0.404
relative viability ([5]; first compound 0.3162 µM): 0.348
relative viability ([6]; first compound 0.01 µM): 0.762
relative viability ([6]; first compound 0.03162 µM): 0.922
relative viability ([6]; first compound 0.3162 µM): 0.54
relative viability ([7]; first compound 0.01 µM): 0.505
relative viability ([7]; first compound 0.03162 µM): 0.433
relative viability ([7]; first compound 0.3162 µM): 0.392
relative viability ([8]; first compound 0.01 µM): 0.807
relative viability ([8]; first compound 0.03162 µM): 0.906
relative viability ([8]; first compound 0.3162 µM): 0.708
relative viability ([9]; first compound 0.01 µM): 0.203
relative viability ([9]; first compound 0.03162 µM): 0.252
relative viability ([9]; first compound 0.3162 µM): 0.279
relative viability ([10]; first compound 0.01 µM): 1.05
relative viability ([10]; first compound 0.03162 µM): 1.02
relative viability ([10]; first compound 0.3162 µM): 1.02
relative viability ([11]; first compound 0.01 µM): 1.01
relative viability ([11]; first compound 0.03162 µM): 0.932
relative viability ([11]; first compound 0.3162 µM): 0.884
relative viability ([12]; first compound 0.01 µM): 1.71
relative viability ([12]; first compound 0.03162 µM): 1.27
relative viability ([12]; first compound 0.3162 µM): 1.34
relative viability ([13]; first compound 0.01 µM): 0.97
relative viability ([13]; first compound 0.03162 µM): 0.997
relative viability ([13]; first compound 0.3162 µM): 0.918
relative viability ([14]; first compound 0.01 µM): 0.915
relative viability ([14]; first compound 0.03162 µM): 1.06
relative viability ([14]; first compound 0.3162 µM): 0.921
relative viability ([15]; first compound 0.01 µM): 0.575
relative viability ([15]; first compound 0.03162 µM): 0.621
relative viability ([15]; first compound 0.3162 µM): 0.614
relative viability ([16]; first compound 0.01 µM): 0.968
relative viability ([16]; first compound 0.03162 µM): 0.981
relative viability ([16]; first compound 0.3162 µM): 0.922
relative viability ([17]; first compound 0.01 µM): 0.881
relative viability ([17]; first compound 0.03162 µM): 0.842
relative viability ([17]; first compound 0.3162 µM): 1.23
relative viability ([18]; first compound 0.01 µM): 1.12
relative viability ([18]; first compound 0.03162 µM): 0.972
relative viability ([18]; first compound 0.3162 µM): 1.01
relative viability ([19]; first compound 0.01 µM): 1.14
relative viability ([19]; first compound 0.03162 µM): 0.985
relative viability ([19]; first compound 0.3162 µM): 0.966
relative viability ([20]; first compound 0.01 µM): 1.21
relative viability ([20]; first compound 0.03162 µM): 1.11
relative viability ([20]; first compound 0.3162 µM): 0.939
relative viability ([21]; first compound 0.01 µM): 0.788
relative viability ([21]; first compound 0.03162 µM): 0.945
relative viability ([21]; first compound 0.3162 µM): 0.751
relative viability ([22]; first compound 0.01 µM): 0.929
relative viability ([22]; first compound 0.03162 µM): 1.06
relative viability ([22]; first compound 0.3162 µM): 1.06
relative viability ([23]; first compound 0.01 µM): 0.432
relative viability ([23]; first compound 0.03162 µM): 0.633
relative viability ([23]; first compound 0.3162 µM): 0.545

CC(C)Oc1cc(Nc2nc(N[C@@H](C)c3ccc(F)cn3)ncc2Cl)n[nH]1 [AZ23] + C[C@@H](Oc1cc(-c2cnn(C3CCNCC3)c2)cnc1N)c1c(Cl)ccc(F)c1Cl [Crizotinib] (partner 1 µM)
relative viability ([1]; first compound 0.01 µM): 1.03
relative viability ([1]; first compound 0.03162 µM): 0.94
relative viability ([1]; first compound 0.3162 µM): 0.838
relative viability ([2]; first compound 0.01 µM): 1.24
relative viability ([2]; first compound 0.03162 µM): 1.11
relative viability ([2]; first compound 0.3162 µM): 1.05
relative viability ([3]; first compound 0.01 µM): 0.857
relative viability ([3]; first compound 0.3162 µM): 0.804
relative viability ([4]; first compound 0.03162 µM): 0.825
relative viability ([4]; first compound 0.3162 µM): 0.616
relative viability ([5]; first compound 0.01 µM): 0.896
relative viability ([5]; first compound 0.03162 µM): 1.21
relative viability ([5]; first compound 0.3162 µM): 0.89
relative viability ([6]; first compound 0.01 µM): 0.863
relative viability ([6]; first compound 0.03162 µM): 1.4
relative viability ([6]; first compound 0.3162 µM): 0.984
relative viability ([7]; first compound 0.01 µM): 0.522
relative viability ([7]; first compound 0.03162 µM): 0.781
relative viability ([7]; first compound 0.3162 µM): 0.654
relative viability ([8]; first compound 0.01 µM): 0.855
relative viability ([8]; first compound 0.03162 µM): 1.09
relative viability ([8]; first compound 0.3162 µM): 0.968
relative viability ([9]; first compound 0.01 µM): 0.981
relative viability ([9]; first compound 0.03162 µM): 1.18
relative viability ([9]; first compound 0.3162 µM): 1.01
relative viability ([10]; first compound 0.01 µM): 0.736
relative viability ([10]; first compound 0.03162 µM): 0.861
relative viability ([10]; first compound 0.3162 µM): 0.654
relative viability ([11]; first compound 0.01 µM): 0.862
relative viability ([11]; first compound 0.03162 µM): 0.859
relative viability ([11]; first compound 0.3162 µM): 0.79
relative viability ([12]; first compound 0.01 µM): 1.71
relative viability ([12]; first compound 0.03162 µM): 1.37
relative viability ([12]; first compound 0.3162 µM): 1.3
relative viability ([13]; first compound 0.01 µM): 1.05
relative viability ([13]; first compound 0.03162 µM): 1.2
relative viability ([13]; first compound 0.3162 µM): 1.06
relative viability ([14]; first compound 0.01 µM): 0.837
relative viability ([14]; first compound 0.03162 µM): 0.912
relative viability ([14]; first compound 0.3162 µM): 0.865
relative viability ([15]; first compound 0.01 µM): 1.08
relative viability ([15]; first compound 0.03162 µM): 1.14
relative viability ([15]; first compound 0.3162 µM): 0.939
relative viability ([16]; first compound 0.01 µM): 0.804
relative viability ([16]; first compound 0.03162 µM): 0.817
relative viability ([16]; first compound 0.3162 µM): 0.777
relative viability ([17]; first compound 0.01 µM): 0.424
relative viability ([17]; first compound 0.03162 µM): 0.527
relative viability ([17]; first compound 0.3162 µM): 0.305
relative viability ([18]; first compound 0.01 µM): 1.28
relative viability ([18]; first compound 0.03162 µM): 0.936
relative viability ([18]; first compound 0.3162 µM): 0.979
relative viability ([19]; first compound 0.01 µM): 0.992
relative viability ([19]; first compound 0.03162 µM): 0.912
relative viability ([19]; first compound 0.3162 µM): 1.08
relative viability ([20]; first compound 0.01 µM): 0.915
relative viability ([20]; first compound 0.03162 µM): 0.997
relative viability ([20]; first compound 0.3162 µM): 0.727
relative viability ([21]; first compound 0.01 µM): 1.01
relative viability ([21]; first compound 0.03162 µM): 1.14
relative viability ([21]; first compound 0.3162 µM): 0.648
relative viability ([22]; first compound 0.01 µM): 0.94
relative viability ([22]; first compound 0.03162 µM): 1.05
relative viability ([22]; first compound 0.3162 µM): 0.978
relative viability ([23]; first compound 0.01 µM): 1.1
relative viability ([23]; first compound 0.03162 µM): 1.19
relative viability ([23]; first compound 0.3162 µM): 1.11

Reference: the supplement of paper PMC10307832
